{
  "source": "paper PMC10970558",
  "about": "(International Journal of Molecular Sciences, 2024)",
  "key": {"[1]": {"system": "U87 glioma", "design": "method as in PMID 33941107", "conditions": "cited from earlier work"}, "[2]": {"system": "C. elegans", "test": "In vivo toxicity, C. elegans survival", "conditions": "for concentration at which toxic: 7 days incubation, tested 25–400 µM; for effect on the entire nematode organism: up to 100 µM, up to 4th day of incubation", "experimental": "(§1) Nematodes wild-type culture (strain N2) was maintained at 20 °C on NGM agar plates with bacteria Escherichia coli OP50 as food source. C. elegans culture was synchronized by treatment with hypochlorite. Obtained eggs were left in M9 buffer at room temperature to hatch until the following day. The next day L1 worms were placed on NGM plates with E. coli OP50 and left at 20 °C until reaching L4 stage (approximately 44 h). L4 worms were transferred to 15 mL falcons by washing NGM plates twice with 5 mL water and centrifuged at 1500 rpm for 3–4 min. Then supernatant was aspirated. Pellet was re-suspended with 5 mL of complete S medium followed by centrifugation. Subsequently the density of nematodes suspension was assessed according to Scanlan et al.. Worms were suspended in complete S medium with E. coli OP50 (1:1000), 0.08% cholesterol (5 mg/mL in Et-OH), 1% penicillin-streptomycin, 1% nystatin, and 100 mM FUdR (at final concentration 200 µM) to obtain 20 nematodes in 50 μL. FUdR was added to sterilize nematodes. After that worms were transferred to 96-well plate. The working solutions of tested drugs were prepared in the complete S medium with 0.1% DMSO and placed into a 96-well plate with previously seeded worms. Then, worms were incubated at 21 °C for 7 days. Live (moving and curling) and dead nematodes were counted every day with an inverted microscope with contrast phase (Delta Optical IB-100). Images of treated C. elegans were also collected. The assay was performed in triplicates in three independent experiments.\n(§2) To analyze differences in nematode viability incubated with the respective concentrations of the compounds, the Kaplan–Meier estimator was used. Statistically significant differences between the control and treated groups were determined with Gehan’s Wilcoxon test. Statistically significant differences in body size between the control and treated groups were determined using a Kruskal–Wallis. p < 0.05 was considered statistically significant. All analyses and calculations were performed using Statistica 13.3 software (StatSoft, Cracow, Poland)."}, "[3]": {"system": "C. elegans", "test": "In vivo toxicity, C. elegans body length", "design": "species or system Caenorhabditis elegans", "experimental": "as §1, §2"}, "[4]": {"system": "HaCaT immortalized keratinocytes", "test": "Caspase 3/7 activity (apoptosis)", "type": "cell-based, human", "conditions": "24 h", "experimental": "(§3) As an apoptosis marker, Caspase 3/7 activity was measured with Apo-ONE® Homogenous Caspase-3/7 Assay (Promega). The fluorescence as determinant of caspase-3/7 activity was read at 485/535 nm using Tecan Infinite M200 PRO Multimode Microplate Reader (TECAN Group Ltd., Männedorf, Switzerland) and results were adjusted relatively to the number of cells per well (the number of cells was determined by fluorescence measurement after DAPI staining)."}, "[5]": {"system": "BJ normal fibroblasts", "test": "Caspase 3/7 activity (apoptosis)", "type": "cell-based, human", "conditions": "24 h", "experimental": "as §3"}, "[6]": {"system": "HaCaT immortalized keratinocytes", "test": "Intracellular ATP level (CellTiter-Glo)", "type": "cell-based, human", "conditions": "24 h", "experimental": "(§4) Intracellular level of ATP was estimated with commercially available bioluminescent CellTiter-Glo® Assay kit from Promega, which was prepared according to manufacturer’s protocol and added to cells (100 μL/well). After 10 min incubation at RT the luminescence was measured using the Infinite M200 PRO Multimode Microplate Reader (TECAN Group Ltd., Männedorf, Switzerland) against blank (wells with the CellTiter-Glo® reagent only). The luminescence signal was proportional to ATP level. At the same time a parallel assay was performed, and cells were labeled with […] DAPI (as described above in proliferation assay). Using calibration curve, the DAPI fluorescence signal was used to estimate the number of cells in each well and to calculate luminescence signal intensity from ATP per one cell. The results were expressed as % of the control (non-treated cells)."}, "[7]": {"system": "BJ normal fibroblasts", "test": "Intracellular ATP level (CellTiter-Glo)", "type": "cell-based, human", "conditions": "24 h", "experimental": "as §4"}, "[8]": {"system": "HaCaT immortalized keratinocytes", "test": "Migration (scratch) assay", "type": "cell-based, human", "experimental": "(§5) Cells were seeded in 24-well plates at 1.5 × 10^5 cells/well in 600 µL culture medium and incubated at 37 °C for 24 h to obtain full confluence. Afterwards, cells were scraped with a sterile 200 µL pipette tips and debris was removed. […] Medium with lowered 2% FBS was used to inhibit cell division. […] Assay was performed as described. The results were expressed as % of scraped area closure estimated as ratio of area measured before and after treatment with drugs."}, "[9]": {"system": "BJ normal fibroblasts", "test": "Migration (scratch) assay", "type": "cell-based, human", "conditions": "12 h", "experimental": "as §5"}, "[10]": {"test": "In vivo toxicity, C. elegans survival", "conditions": "N2, Caenorhabditis elegans, in vivo, other: exposure in complete S medium in 96-well plate, 7 days incubation, read-out: viability (living individuals)", "experimental": "as §1, §2"}, "[11]": {"system": "HaCaT immortalized keratinocytes", "test": "Neutral red (NR) cytotoxicity assay", "type": "cell-based, human", "conditions": "for IC50: 24 h treatment, NR assay, AAT Bioquest IC50 calculator", "experimental": "(§6) After 24 h exposure to drugs, assay was performed as described."}, "[12]": {"test": "Neutral red (NR) cytotoxicity assay", "type": "cell-based, human", "conditions": "human, HaCaT immortalized keratinocytes, 50 µM, 24 h, NR assay", "experimental": "as §6"}, "[13]": {"system": "BJ normal fibroblasts", "test": "Neutral red (NR) cytotoxicity assay", "type": "cell-based, human", "conditions": "for IC50: 24 h treatment, AAT Bioquest IC50 calculator", "experimental": "as §6"}, "[14]": {"system": "A172 glioma cells", "design": "method as in PMID 37574500", "conditions": "A172, 24 h incubation; cited from earlier work"}, "[15]": {"system": "glioma stem cells GSC", "design": "method as in PMID 18509487", "conditions": "mouse model of malignant glioma; cited from earlier work"}, "[16]": {"target": "PPARγ", "design": "method as in PMID 11684010", "conditions": "cited from earlier work"}, "[17]": {"system": "PPARγ in BJ cells", "test": "PPARγ level, Western blot", "type": "cell-based, human", "conditions": "non-toxic concentration (12.5 µM), 24 h"}, "[18]": {"system": "BJ normal fibroblasts", "test": "Proliferation assay (DAPI, 72 h)", "type": "cell-based, human", "experimental": "Cells were seeded into 96-well, clear microplates at density 4 × 10^3 cells/well and incubated 24 h at 37 °C to attach. […] DMSO concentration was adjusted to 0.1% in all samples. The plates were placed for 72 h in incubator. Then, cells were washed with PBS and fixed in 3.7% formaldehyde solution in PBS for 15 min at RT, again washed with PBS and nuclei were staining with 600 nM DAPI solution in PBS (100 µL/well, 1 h). The fluorescent signal, proportional to the number of cells, was measured in Tecan Infinite M200 PRO Mulitmode Microplate Reader (TECAN Group Ltd., Männedorf, Switzerland) at 360 nm/460 nm. The results were expressed as % of the 0.1% DMSO treated control."}},
  "note": "“And” between values parts separate entries of the source, which are not always exact repeats. Equal entries are not always repeated. Where two headings read alike, the source gives them in different places.",
  "data": [
    {"smiles": "Cc1c(C)c2c(c(C)c1O)CCC(C)(COc1ccc(CC3SC(=O)NC3=O)cc1)O2", "note": "(centres unmarked) [troglitazone]", "values": [
      {"measurement": "concentration inhibiting growth of U87 glioma tumors, colony formation and migration", "setting": "[1]", "result": 20, "unit": "µM"}
    ]},
    {"smiles": "COC(=O)Nc1nc2ccc(C(=O)c3ccccc3)cc2[nH]1", "note": "[mebendazole]", "values": [
      {"measurement": "IC50", "setting": "[2]; Caenorhabditis elegans, data from our studies", "result": 4, "unit": "µM"}
    ]},
    {"smiles": "Cc1ccc(-c2cc(C(F)(F)F)nn2-c2ccc(S(N)(=O)=O)cc2)cc1", "note": "[CXB, celecoxib]", "values": [
      {"measurement": "reduction of body length", "setting": "[3]; 200 µM, 7 days", "result": 25, "unit": "%"},
      {"measurement": "concentration at which body length was significantly shortened", "setting": "[3]; 7-day treatment", "result": "50 to 400", "unit": "µM"},
      {"measurement": "body length versus control group", "setting": "[3]; 50 and 400 µM, 7 days", "result": "more than twice as short"},
      {"measurement": "concentration from which caspase 3/7 activity increased / apoptosis induced", "setting": "[4]", "result": "≥ 50", "unit": "µM"},
      {"measurement": "concentration from which caspase 3/7 activity increased / apoptosis induced", "setting": "[5]", "result": "≥ 50", "unit": "µM"},
      {"measurement": "concentration at which intracellular ATP level increased", "setting": "[6]", "result": "25 µM and 50 µM"},
      {"measurement": "concentration at which intracellular ATP level increased", "setting": "[7]", "result": 25, "unit": "µM"},
      {"measurement": "concentration from which migration was reduced", "setting": "[8]; 24 h", "result": "≥ 50", "unit": "µM"},
      {"measurement": "concentration from which migration was reduced", "setting": "[9]", "result": "≥ 50", "unit": "µM"},
      {"measurement": "concentration at which lifespan was significantly shortened", "setting": "[2]; 7-day treatment", "result": "25 to 400", "unit": "µM"},
      {"measurement": "concentration at which toxic", "setting": "[2]", "result": 25, "unit": "µM"},
      {"measurement": "effect on the entire nematode organism", "setting": "[2]", "result": "no significant effect"},
      {"measurement": "viability at 7 days, 200 µM", "setting": "[10]; 200 µM", "result": 60, "unit": "%"},
      {"measurement": "viability at 7 days, 400 µM", "setting": "[10]; 400 µM", "result": 73, "unit": "%"},
      {"measurement": "IC50", "setting": "[11]; Homo sapiens, read-out: IC50", "result": 59.5, "unit": "µM"},
      {"measurement": "viability at 24 h, 50 µM", "setting": "[12]", "result": "~65", "unit": "%"},
      {"measurement": "IC50", "setting": "[13]; Homo sapiens, Fibroblast", "result": 77.6, "unit": "µM"},
      {"measurement": "concentration from which cells were significantly destroyed via apoptosis", "setting": "[14]", "result": "≥ 25", "unit": "µM"},
      {"measurement": "IC50", "setting": "[15]", "result": 60, "unit": "µM"}
    ]},
    {"smiles": "CC1(COc2ccc(CC3SC(=O)NC3=O)cc2)CCCCC1", "note": "(centres unmarked) [Ciglitazone]", "values": [
      {"measurement": "concentration inhibiting growth of U87 glioma tumors, colony formation and migration", "setting": "[1]", "result": 20, "unit": "µM"}
    ]},
    {"smiles": "CC(C)C[C@H](NC(=O)OCC1c2ccccc2-c2ccccc21)C(=O)O", "note": "[FL, Fmoc-L-Leucine]", "values": [
      {"measurement": "change in nematode body length", "setting": "[3]; 7 days", "result": "did not significantly affect"},
      {"measurement": "change of caspase 3/7 activity level", "setting": "[4]", "result": "reduced"},
      {"measurement": "concentration from which caspase 3/7 activity increased / apoptosis induced", "setting": "[5]", "result": "≥ 50", "unit": "µM"},
      {"measurement": "Ki", "setting": "[16]", "result": 15, "unit": "µM"},
      {"measurement": "concentration at which intracellular ATP level increased", "setting": "[6]", "result": 100, "unit": "µM"},
      {"measurement": "concentration at which intracellular ATP level decreased", "setting": "[7]", "result": 100, "unit": "µM"},
      {"measurement": "effect on migration", "setting": "[8]; entire range of concentrations used (25–100 µM)", "result": "did not affect"},
      {"measurement": "concentration from which migration was reduced", "setting": "[9]", "result": "≥ 50", "unit": "µM"},
      {"measurement": "concentration at which toxic", "setting": "[2]", "result": 400, "unit": "µM"},
      {"measurement": "effect on the entire nematode organism", "setting": "[2]", "result": "no significant effect"},
      {"measurement": "increase of PPARγ level", "setting": "[17]", "result": "55% and 50%"},
      {"measurement": "concentration at which cell division was inhibited", "setting": "[18]", "result": 100, "unit": "µM"},
      {"measurement": "IC50", "setting": "[11]", "result": "≫"},
      {"measurement": "sensitivity of cells", "setting": "[11]; up to the highest (100 µM) concentration", "result": "not sensitive"},
      {"measurement": "viability", "setting": "[13]; 100 µM, 24 h", "result": "about 70%"},
      {"measurement": "IC50", "setting": "[13]", "result": 400, "unit": "µM"}
    ]}
  ]
}
